Marks after values point to notes of the source that are not given here.
Assays:
[1] = target: T1, PARS (Mus musculus, UniProt P11103); assay: PARS activation in peroxynitrite-stimulated cultured RAW macrophages (whole-cell assay, 3H-NAD+ incorporation); assay type: cell-based; conditions: cultured murine macrophages; for % PARS inhibition at 100 nM / inhibition at 0.1 µM: 100 nM
T1 construct: endogenous in cells; host or cells: RAW mouse macrophages
Protocol: RAW mouse macrophages were cultured in DMEM medium with high glucose and supplemented with 10% fetal bovine serum. Cells were used at 80% confluence in 12-well plates. Cells were pretreated with various concentrations (100 nM-1 μM) of an Isoquinoline Derivative for 10 min. Peroxynitrite, a prototypical oxidant which induces DNA single strand breakage, was used to induce PARS activation. Peroxynitrite was diluted in phosphate buffered saline (PBS) (pH 11.0) and added to the cells in a bolus of 50 μl. Cells were then incubated for 20 min. […] Following an incubation in assay buffer, (10 min at 37° C.), PARS activity was measured as follows: 200 μl ice cold 50% w/v TCA was added and the samples were incubated for 4 hours at 4° C. Samples were then spun (10 min@10,000 g) and pellets washed twice with ice cold 5% w/v TCA and solubilized overnight in 250 μl 2% w/v SDS/0.1 N NaOH at 37° C. The contents of the tubes were added to 6.5 ml ScintiSafe Plus scintillation liquid (Fisher Scientific) and radioactivity was determined using a liquid scintillation counter (Wallac, Gaithersburg, Md.).

[2] = tested on: mice; assay: Single high-dose streptozotocin model of diabetes; assay type: in vivo; conditions: 3 mg/kg i.p.; STZ 160 mg/kg; blood sugar 3 days later; STZ + Vehicle 320 ± 13, basal 153 ± 21
Protocol: PARS inhibitors and PARS deficiency are known to reduce the development of diabetes and the incidence of diabetic complications (Mabley et al., Br J Pharmacol. 2001, 133(6):909-9; and Soriano et al., Nat Med. 2001, 7(1):108-13). […] Briefly, 160 mg/kg streptozotocin was injected to mice treated with vehicle or with illustrative Isoquinoline Derivatives intraperitoneally (3 mg/kg) and 3 days later blood sugar levels were determined using a blood glucose meter.

[3] = tested on: rat; assay: Rat model of middle cerebral artery occlusion/reperfusion; assay type: in vivo; conditions: 3 mg/kg/day i.p.
Protocol: Occlusion lasted for 2 hours, followed by reperfusion for 24 hours. Infarct size was quantified with tetrazolium staining. […] There was an approximately 80% reduction in the degree of cortical necrosis and neuronal death in the animals administered with 8l, when compared to vehicle-treated controls.

[4] = tested on: TNF-alpha; assay: LPS induced TNF production in mice in vivo; conditions: LPS 10 mg/kg i.p., plasma at 90 minutes, vehicle 6994.0
[5] = target: T2, purified PARS enzyme (Homo sapiens, UniProt P09874); assay: Purified PARS enzyme inhibition assay (Trevigen kit, 96 well ELISA plates); assay type: biochemical; conditions: starred values: tested in purified enzyme assay
T2 construct: purchased Trevigen, Gaithersburg, Md
T2 sequence (P09874 whole entry): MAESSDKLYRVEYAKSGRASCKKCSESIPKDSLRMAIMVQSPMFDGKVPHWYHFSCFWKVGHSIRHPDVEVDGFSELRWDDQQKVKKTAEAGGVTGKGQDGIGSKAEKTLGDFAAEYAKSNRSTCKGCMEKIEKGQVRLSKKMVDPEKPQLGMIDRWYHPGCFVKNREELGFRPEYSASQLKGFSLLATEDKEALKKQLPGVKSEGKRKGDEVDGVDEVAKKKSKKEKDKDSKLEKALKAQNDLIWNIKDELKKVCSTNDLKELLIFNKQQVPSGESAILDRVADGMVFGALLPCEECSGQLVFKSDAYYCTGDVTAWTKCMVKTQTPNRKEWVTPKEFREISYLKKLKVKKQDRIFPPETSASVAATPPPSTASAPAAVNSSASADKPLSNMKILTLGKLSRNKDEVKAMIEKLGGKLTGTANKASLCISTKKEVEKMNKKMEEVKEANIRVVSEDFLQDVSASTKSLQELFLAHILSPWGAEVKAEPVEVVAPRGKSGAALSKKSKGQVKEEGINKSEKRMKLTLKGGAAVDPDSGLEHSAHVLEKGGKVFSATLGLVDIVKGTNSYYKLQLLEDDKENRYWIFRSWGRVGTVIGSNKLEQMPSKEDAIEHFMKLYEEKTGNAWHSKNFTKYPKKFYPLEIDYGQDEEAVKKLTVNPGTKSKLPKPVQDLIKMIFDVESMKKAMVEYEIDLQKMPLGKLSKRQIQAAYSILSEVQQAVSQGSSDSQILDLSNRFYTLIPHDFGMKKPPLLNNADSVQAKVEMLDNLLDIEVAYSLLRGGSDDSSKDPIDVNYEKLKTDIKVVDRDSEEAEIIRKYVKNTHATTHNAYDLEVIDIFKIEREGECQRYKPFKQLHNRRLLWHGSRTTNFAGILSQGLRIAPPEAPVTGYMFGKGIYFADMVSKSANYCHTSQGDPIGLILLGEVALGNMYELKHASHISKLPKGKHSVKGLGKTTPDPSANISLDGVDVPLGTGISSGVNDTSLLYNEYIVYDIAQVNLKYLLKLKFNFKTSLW
Protocol: The assay was performed in 96 well ELISA plates according to instructions provided with a commercially available PARS inhibition assay kit (Trevigen, Gaithersburg, Md.). Briefly, wells were coated with 1 mg/mL histone (50 μl/well) at 4° C. overnight. Plates were then washed four times with PBS and then blocked by adding 50 μl Strep-Diluent (supplied with the kit). After incubation (1 h, room temperature), the plates were washed four times with PBS. Appropriate dilutions of PARS inhibitors were combined with 2×PARS cocktail (1.95 mM NAD^+, 50 μM biotinylated NAD^+ in 50 mM TRIS pH 8.0, 25 mM MgCl2) and high specific activity PARS enzyme (both were supplied with the kit) in a volume of 50 μl. The reaction was allowed to proceed for 30 min at room temperature. After 4 washes in PBS, incorporated biotin was detected by peroxidase-conjugated streptavidin (1:500 dilution) and TACS Sapphire substrate.

T1 sequence (P11103 whole entry): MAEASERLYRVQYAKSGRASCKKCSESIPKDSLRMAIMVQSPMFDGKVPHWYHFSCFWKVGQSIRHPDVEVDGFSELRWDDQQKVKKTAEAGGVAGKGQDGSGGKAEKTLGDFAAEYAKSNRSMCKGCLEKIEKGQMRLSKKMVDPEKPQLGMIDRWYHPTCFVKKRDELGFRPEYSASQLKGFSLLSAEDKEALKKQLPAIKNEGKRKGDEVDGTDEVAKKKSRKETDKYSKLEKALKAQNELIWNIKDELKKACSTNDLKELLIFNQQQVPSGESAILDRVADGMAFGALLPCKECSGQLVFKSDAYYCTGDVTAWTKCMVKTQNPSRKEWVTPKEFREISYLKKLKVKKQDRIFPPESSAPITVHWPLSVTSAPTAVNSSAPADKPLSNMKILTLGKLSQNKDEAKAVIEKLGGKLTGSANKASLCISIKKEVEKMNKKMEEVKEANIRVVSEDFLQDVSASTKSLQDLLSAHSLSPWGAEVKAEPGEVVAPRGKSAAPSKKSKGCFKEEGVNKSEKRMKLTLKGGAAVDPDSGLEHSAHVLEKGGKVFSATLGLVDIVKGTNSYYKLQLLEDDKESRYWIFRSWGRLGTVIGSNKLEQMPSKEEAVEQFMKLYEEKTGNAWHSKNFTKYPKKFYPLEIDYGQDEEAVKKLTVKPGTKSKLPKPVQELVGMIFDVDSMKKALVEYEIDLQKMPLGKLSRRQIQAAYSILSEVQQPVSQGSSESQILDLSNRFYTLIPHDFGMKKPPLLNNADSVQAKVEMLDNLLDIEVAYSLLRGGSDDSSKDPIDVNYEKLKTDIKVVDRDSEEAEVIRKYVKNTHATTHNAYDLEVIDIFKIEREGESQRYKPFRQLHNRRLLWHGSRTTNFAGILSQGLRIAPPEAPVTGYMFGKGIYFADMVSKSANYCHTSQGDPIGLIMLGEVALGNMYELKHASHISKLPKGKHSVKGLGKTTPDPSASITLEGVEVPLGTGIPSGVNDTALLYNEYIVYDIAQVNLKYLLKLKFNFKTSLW

inhibition at 0.1 µM [1] [%]	inhibition at 0.3 µM ([1]; 300 nM) [%]	inhibition at 1 µM [1] [%]	Compound	further results
–	–	–	O=c1[nH]c2c(c3ccccc13)C(N1CCNCC1)c1ccccc1-2 (racemic) [Compound 5c, (±) 11-piperizin-5,6-dihydro-5-oxo-11H-indeno[1,2-c]isoquinoline]	% PARS inhibition at 100 nM [1]: 0%; % PARS inhibition at 1 μM [1]: 24%
–	–	–	CN1CCN(C2c3ccccc3-c3[nH]c(=O)c4ccccc4c32)CC1 (racemic) [Compound 5d, (±) 11-(N-methylpiperazin)-5,6-dihydro-5-oxo-11H-indeno[1,2-c]isoquinoline]	% PARS inhibition at 1 μM [1]: 48%
–	–	–	O=c1[nH]c2c(c3ccccc13)Cc1cc(S(=O)(=O)N3CCC[C@H]3CO)ccc1-2 [Compound 8e, 9-[N-(2-hydroxyprolinyl)sulphonyl]-5,6-dihydro-5-oxo-11H-indeno[1,2-c]isoquinoline]	% PARS inhibition at 300 nM ([1]; 300 nM): 68%
–	–	–	O=c1[nH]c2c(c3ccccc13)Cc1cc(S(=O)(=O)NCCN3CCOCC3)ccc1-2 [Compound 8j, 9-[N-(2-[morpholino-4-yl]ethyl)-aminosulphonyl]-5,6-dihydro-5-oxo-11H-indeno[1,2-c]isoquinoline]	Glucose [2]: 253 ± 24
–	–	–	O=c1[nH]c2c(c3ccccc13)Cc1cc(S(=O)(=O)NCCCN3CCOCC3)ccc1-2 [Compound 8l, 9-[N-(3-[morpholino-4-yl]propyl)-aminosulphonyl]-5,6-dihydro-5-oxo-11H-indeno-[1,2-c]isoquinoline]	functional benefit [3]: neurological improvements
27	45	–	CCN(CC)CCN(CCN(CC)CC)S(=O)(=O)c1ccc2c(c1)Cc1c-2[nH]c(=O)c2ccccc12 [Compound 8p, 9-[N,N-di-(2-[N,N-diethylamino]ethyl)-aminosulphonyl]-5,6-dihydro-5-oxo-11H-indeno-[1,2-c]isoquinoline]	TNF ([4]; 0.1 mg/kg i.p. pretreatment): 4470 pg/mL; TNF ([4]; 1.0 mg/kg i.p. pretreatment): 5090 pg/mL; Glucose [2]: 264 ± 24 mg/dL
20	28	–	CN(C)CCN(CCN(C)C)S(=O)(=O)c1ccc2c(c1)Cc1c-2[nH]c(=O)c2ccccc12 [Compound 8q, 9-[N,N-di-(2-[N,N-dimethylamino]ethyl)-aminosulphonyl]-5,6-dihydro-5-oxo-11H-indeno-[1,2-c]isoquinoline]	–
51	–	81	O=c1[nH]c2c3ccccc3oc2c2ccccc12 [Compound 22a]	–
62	66	83	COc1ccc2c(c1)oc1c3ccccc3c(=O)[nH]c21 [Compound 22c]	–
–	–	–	COc1cccc2c1oc1c3ccccc3c(=O)[nH]c21 [Compound 22d]	inhibition at 1 µM ([5]; 1 μM): 13%
38	56	53	Cc1ccc2oc3c4ccccc4c(=O)[nH]c3c2c1 [Compound 22e]	–
–	23	27	O=C(O)c1ccc2oc3c4ccccc4c(=O)[nH]c3c2c1 [Compound 22f]	–
–	23	27	O=C(O)c1ccc2c(c1)oc1c3ccccc3c(=O)[nH]c21 [Compound 22g]	–
63	66	63	O=c1[nH]c2c3cccc(O)c3oc2c2ccccc12 [Compound 23c]	–
–	–	–	O=C(O)CCNC(=O)c1ccc2oc3c4ccccc4c(=O)[nH]c3c2c1 [Compound 26b]	% PARS inhibition at 100 nM [5]: 21* %
–	–	–	O=c1[nH]c2c3ccccc3[nH]c2c2ccccc12 [Compound 31, 6H,11H-Indole-[3,2-C]-Isoquinoline-5-one]	% PARS inhibition at 100 nM [1]: 18%
–	–	–	O=c1[nH]c2c3ccc(S(=O)(=O)O)cc3n(S(=O)(=O)O)c2c2ccccc12 [Compound 34]	% PARS inhibition at 100 nM [5]: 14* %; % PARS inhibition at 300 nM ([5]; 300 nM): 33* %
–	–	–	NS(=O)(=O)c1ccc2c3[nH]c(=O)c4ccccc4c3n(S(N)(=O)=O)c2c1 [Compound 35a, 6H,11H-Indole-[3,2-C]-Isoquinoline-5-one-9,11-disulfonamide]	% PARS inhibition at 100 nM [1]: 14%; % PARS inhibition at 1 μM [1]: 75%

Reference: US6956035B2, “Isoquinoline derivatives and methods of use thereof” (Inotek Pharmaceuticals Corporation, priority 2001, dated 2005)
